From patent US6552080B1, “Fungicidal compounds having a fluorovinyl-or fluoropropenyl-oxyphenyloxime moiety and process for the preparation thereof” (Korea Research Institute of Chemical Technology, priority 1999, dated 2003)
Like-named read-outs stand apart in the source and are kept apart here.

Legend:
[1] = tested on: Pyricularia oryzae Carvara KA301; assay type: in vivo; conditions: for RCV (Fungicidal Activities, C.V.): Rice Blast
Botrytis cinerae = experiment: Fungicidal activity against Cucumber Gray Mold Rot (CGM) disease; assay type: in vivo; conditions: for CGM (Fungicidal Activities, C.V.): Cucumber Gray Mold Rot, concentration 50 ppm; for Fungicidal Activities CGM (C.V.): 50 ppm
Phytophthora infestans = assay type: in vivo; conditions: for TLB (Fungicidal Activities, C.V.): Tomato Late Blight
Puccinia recondita = experiment: Fungicidal activity against Wheat Leaf Rust (WLR) disease; assay type: in vivo; conditions: for WLR (Fungicidal Activities, C.V.): Wheat Leaf Rust
Erysiphae graminis = experiment: Fungicidal activity against Barley Powdery Mildew (BPM) disease; assay type: in vivo; conditions: for BPM (Fungicidal Activities, C.V.): Barley Powdery Mildew
Rhizoctonia solani AG-1 = experiment: Fungicidal activity against Rice Sheath Blight (RSB) disease; conditions: for RSB (Fungicidal Activities, C.V.): Rice Sheath Blight

Compound	RCV (Fungicidal Activities, C.V.) ([1]; concentration 2 ppm) [%]	RCV (Fungicidal Activities, C.V.) ([1]; concentration 50 ppm) [%]	CGM (Fungicidal Activities, C.V.) (Botrytis cinerae) [%]	TLB (Fungicidal Activities, C.V.) (Phytophthora infestans; concentration 50 ppm) [%]	WLR (Fungicidal Activities, C.V.) (Puccinia recondita; concentration 2 ppm) [%]	WLR (Fungicidal Activities, C.V.) (Puccinia recondita; concentration 50 ppm) [%]	BPM (Fungicidal Activities, C.V.) (Erysiphae graminis; concentration 2 ppm) [%]	BPM (Fungicidal Activities, C.V.) (Erysiphae graminis; concentration 50 ppm) [%]	RSB (Fungicidal Activities, C.V.) (Rhizoctonia solani AG-1; concentration 2 ppm) [%]	RSB (Fungicidal Activities, C.V.) (Rhizoctonia solani AG-1; concentration 50 ppm) [%]	Fungicidal Activities RCV (C.V.) ([1]; 50 ppm) [%]	Fungicidal Activities CGM (C.V.) (Botrytis cinerae) [%]	Fungicidal Activities TLB (C.V.) (Phytophthora infestans; 50 ppm) [%]	Fungicidal Activities WLR (C.V.) (Puccinia recondita; 50 ppm) [%]	Fungicidal Activities BPM (C.V.) (Erysiphae graminis; 50 ppm) [%]	Fungicidal Activities RSB (C.V.) (Rhizoctonia solani AG-1; 50 ppm) [%]	Fungicidal Activities RCV (C.V.) ([1]; 2 ppm) [%]	Fungicidal Activities WLR (C.V.) (Puccinia recondita; 2 ppm) [%]	Fungicidal Activities BPM (C.V.) (Erysiphae graminis; 2 ppm) [%]	Fungicidal Activities RSB (C.V.) (Rhizoctonia solani AG-1; 2 ppm) [%]	other results
CCc1ccc(C=C(F)Oc2cccc(C(C)=NOCc3ccccc3C(=NOC)C(=O)OC)c2)cc1 [Compound 69]	100	100	25	60	97	100	99	100	30	100	–	–	–	–	–	–	–	–	–	–	TLB (Fungicidal Activities, C.V.) (Phytophthora infestans; concentration 2 ppm): 25%
CNC(=O)C(=COC)c1ccccc1CON=C(C)c1cccc(OC(F)=Cc2ccc(C)cc2)c1 [Compound 57]	95	99	8	0	27	98	0	98	–	47	–	–	–	–	–	–	–	–	–	–	–
CON=C(C(=O)OC)c1ccccc1CON=C(c1cccc(OC(F)=C(c2ccccc2)C(F)(F)F)c1)C(F)(F)F [Compound 221]	–	–	–	–	–	–	–	–	–	–	41	0	0	100	100	30	–	–	–	–	Fungicidal Activities WLR (C.V.) (Puccinia recondita; 10 ppm): 91%; Fungicidal Activities BPM (C.V.) (Erysiphae graminis; 10 ppm): 96%
CON=C(C(=O)OC)c1ccccc1CON=C(C)c1cccc(OC(F)=C(c2ccc(C)c(C)c2)C(F)(F)F)c1 [Compound 176]	–	–	–	–	–	–	–	–	–	–	86	12	70	100	100	60	83	60	80	20	–
CNC(=O)C(=NOC)c1ccccc1CON=Cc1cccc(OC(F)=C(c2ccccc2)C(F)(F)F)c1 [Compound 139]	53	100	0	46	93	98	97	98	10	20	–	–	–	–	–	–	–	–	–	–	–
CCOc1ccc(C=C(F)Oc2cccc(C(C)=NOCc3ccccc3C(=NOC)C(=O)NC)c2)cc1 [Compound 81]	100	100	83	64	99	100	100	100	30	100	–	–	–	–	–	–	–	–	–	–	TLB (Fungicidal Activities, C.V.) (Phytophthora infestans; concentration 2 ppm): 12%
CON=C(C(=O)OC)c1ccccc1CON=C(C)c1cccc(OC(F)=C(c2ccc(OC)cc2)C(F)(F)F)c1 [Compound 181]	–	–	–	–	–	–	–	–	–	–	95	77	30	99	100	45	98	83	83	35	Fungicidal Activities TLB (C.V.) (Phytophthora infestans; 2 ppm): 68%
CNC(=O)C(=NOC)c1ccccc1CON=C(C)c1cccc(OC(F)=C(c2cccc(Cl)c2)C(F)(F)F)c1 [Compound 201]	–	–	–	–	–	–	–	–	–	–	97	85	50	100	100	85	98	97	100	20	Fungicidal Activities TLB (C.V.) (Phytophthora infestans; 2 ppm): 25%
CON=C(C(=O)OC)c1ccccc1CON=C(C)c1cccc(OC(F)=C(c2cccc(C(F)(F)F)c2)C(F)(F)F)c1 [Compound 188]	–	–	–	–	–	–	–	–	–	–	71	0	40	95	100	55	76	66	91	0	Fungicidal Activities TLB (C.V.) (Phytophthora infestans; 2 ppm): 0%
